According to patent US20250230193A1, “CYCLIC COMPOUND HAVING SELECTIVE KRAS INHIBITORY EFFECT ON HRAS AND NRAS” (CHUGAI SEIYAKU KABUSHIKI KAISHA, priority 2022, published 2025):
*1 amine or outer side, *2 acyl side, *3 side chain or, on linkers, in order; H or OH if unused. Where a SMILES comes first, the peptide text is derived from it. Bridges are numbered along the chain shown (N, C = ends). [ ]: non-standard residue; d: D form. The star is where a group is joined. hPhe(3-Cl-4-CF3) = N[C@@H](CCc1ccc(C(F)(F)F)c(Cl)c1)C(=O)O; NPrPhe(4-CF3) = CCCN[C@@H](Cc1ccc(C(F)(F)F)cc1)C(=O)O; X22 = CCCN([C@@H](COC1CCC1)C(=O)[*:2])[*:1]; X30 = CCN([C@H](C(=O)[*:2])C1CCCC1)[*:1]; NMeGly(cPent) = CN[C@H](C(=O)O)C1CCCC1; NMeD = CN[C@@H](CC(=O)O)C(=O)O; NMeL = CN[C@@H](CC(C)C)C(=O)O; Morpholide = C1CN(*)CCO1; NMeA = CN[C@@H](C)C(=O)O; dNMeA = CN[C@H](C)C(=O)O; Ac5c = NC1(C(=O)O)CCCC1; Aze = O=C(O)[C@@H]1CCN1; Ac4c = NC1(C(=O)O)CCC1; NEtG = CCNCC(=O)O; Sar = CNCC(=O)O

Key:
[1] = molecular target: GDP-bound HRAS wild-type protein (Homo sapiens, UniProt P01112); assay: Binding to HRAS by surface plasmon resonance (SPR), Single Cycle Kinetics
Sequence of GDP-bound HRAS wild-type protein (P01112 whole entry): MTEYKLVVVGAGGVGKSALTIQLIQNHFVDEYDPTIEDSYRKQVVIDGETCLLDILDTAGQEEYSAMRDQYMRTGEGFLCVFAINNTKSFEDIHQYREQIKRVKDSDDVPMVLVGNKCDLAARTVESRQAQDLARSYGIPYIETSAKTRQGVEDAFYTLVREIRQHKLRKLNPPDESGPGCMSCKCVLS

[2] = molecular target: GDP-bound NRAS wild-type protein (Homo sapiens, UniProt P01111); assay: Binding to NRAS by surface plasmon resonance (SPR), Single Cycle Kinetics
Sequence of GDP-bound NRAS wild-type protein (P01111 whole entry): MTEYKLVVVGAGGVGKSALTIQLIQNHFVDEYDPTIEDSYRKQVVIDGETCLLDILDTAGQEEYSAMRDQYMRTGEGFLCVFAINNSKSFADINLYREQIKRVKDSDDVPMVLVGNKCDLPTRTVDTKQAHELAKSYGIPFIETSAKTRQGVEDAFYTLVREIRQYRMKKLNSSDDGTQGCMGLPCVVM

[3] = GDP-bound HRAS wild-type vs GDP-bound KRAS wild-type, SPR
[4] = GDP-bound NRAS wild-type vs GDP-bound KRAS wild-type, SPR

CCC[C@H]1C(=O)N[C@@H]([C@@H](C)CC)C(=O)N2CCC[C@H]2C(=O)N(C)[C@H]2C/C=C\CCN(C2=O)[C@@H](Cc2ccc(C)cc2)C(=O)N(C)CC(=O)N[C@@H](CCc2ccc(Cl)c(Cl)c2)C(=O)N2C[C@H](OCC)C[C@H]2C(=O)NC2(CC(C)(C)C2)C(=O)N(C)[C@@H](C(CC)CC)C(=O)N(C)[C@H](C(=O)N(C)C)CC(=O)N1C [PP2638] was tested, and the “HRAS/KRAS (ratio of KD value with respect to GDP-bound HRAS wild-type protein to KD value with respect to KRAS)” value ([1]; KD ratio HRAS/KRAS, class symbols) was “A (a compound having 10 or more and less than 20 is denoted as A)” and the “NRAS/KRAS (ratio of KD value with respect to GDP-bound NRAS wild-type protein to KD value with respect to KRAS)” value ([2]; KD ratio NRAS/KRAS, class symbols) was “AA (a compound having 20 or more is denoted as AA)”.
CC[C@H](C)[C@@H]1NC(=O)[C@H](CC(C)C)N(C)C(=O)C[C@@H](C(=O)N2CCOCC2)N(C)C(=O)[C@H](C2CCCC2)N(C)C(=O)C2(CCCC2)NC(=O)[C@@H]2CCCN2C(=O)[C@H](CCc2ccc(C(F)(F)F)c(Cl)c2)NC(=O)CN(C)C(=O)[C@H](C2CCCC2)N(CC)C(=O)[C@@H]2CCN2C(=O)[C@H](C)N(C)C1=O [PP0003] ([NMeL]I[NMeA][Aze][X30][Sar][hPhe(3-Cl-4-CF3)]P[Ac5c][NMeGly(cPent)][NMeD]-Morpholide; lactam N-11) was tested, and the “HRAS/KRAS (ratio of KD for GDP-bound HRAS wild-type to KD for KRAS)” value ([1]; KD ratio HRAS/KRAS, SPR) was “C (A compound having a KD ratio of 0.1 or more and less than 3 is denoted as C)” and the “NRAS/KRAS (ratio of KD for GDP-bound NRAS wild-type to KD for KRAS)” value ([2]; KD ratio NRAS/KRAS, SPR) was “C (A compound having a KD ratio of 0.1 or more and less than 3 is denoted as C)”.
With CCCN1C(=O)CN(C)C(=O)CN(C)C(=O)[C@H]([C@@H](C)CC)NC(=O)[C@H](CC(C)C)N(C)C(=O)C[C@@H](C(=O)N2CCOCC2)N(C)C(=O)[C@H](C2CCCC2)N(C)C(=O)C2(CCC2)NC(=O)[C@@H]2CCCN2C(=O)[C@H](CCc2ccc(C(F)(F)F)c(Cl)c2)NC(=O)CN(C)C(=O)[C@@H]1COC1CCC1 [PP1816] ([NMeL]I[Sar][Sar][X22][Sar][hPhe(3-Cl-4-CF3)]P[Ac4c][NMeGly(cPent)][NMeD]-Morpholide; lactam N-11) the “HRAS/KRAS (ratio of KD value for HRAS to KD value for KRAS)” value [1, 3] was “C (A compound having a KD ratio of 0.1 or more and less than 3 is denoted as C)” and the “NRAS/KRAS (ratio of KD value for NRAS to KD value for KRAS)” value [2, 4] was “B (a compound having 3 or more and less than 10 is denoted as B)”.
In the case of CCCN1C(=O)CN(C)C(=O)CN(C)C(=O)[C@H]([C@@H](C)CC)NC(=O)[C@H](CC(C)C)N(C)C(=O)C[C@@H](C(=O)N2CCOCC2)N(C)C(=O)[C@H](C2CCCC2)N(C)C(=O)C2(CCCC2)NC(=O)[C@@H]2CCCN2C(=O)[C@H](CCc2ccc(C(F)(F)F)c(Cl)c2)NC(=O)[C@@H](C)N(C)C(=O)[C@@H]1Cc1ccc(C(F)(F)F)cc1 [PP0148] ([NMeL]I[Sar][Sar][NPrPhe(4-CF3)][dNMeA][hPhe(3-Cl-4-CF3)]P[Ac5c][NMeGly(cPent)][NMeD]-Morpholide; lactam N-11), the “HRAS/KRAS (ratio of KD for GDP-bound HRAS wild-type to KD for KRAS)” value ([1]; KD ratio HRAS/KRAS, SPR) is reported as “B (a compound having 3 or more and less than 10 is denoted as B)” and the “NRAS/KRAS (ratio of KD for GDP-bound NRAS wild-type to KD for KRAS)” value ([2]; KD ratio NRAS/KRAS, SPR) is reported as “B (a compound having 3 or more and less than 10 is denoted as B)”.
With CCCN1C(=O)CN(C)C(=O)CN(CC)C(=O)[C@H]([C@@H](C)CC)NC(=O)[C@H](CC(C)C)N(C)C(=O)C[C@@H](C(=O)N2CCOCC2)N(C)C(=O)[C@H](C2CCCC2)N(C)C(=O)C2(CCC2)NC(=O)[C@@H]2CCCN2C(=O)[C@H](CCc2ccc(C(F)(F)F)c(Cl)c2)NC(=O)CN(C)C(=O)[C@@H]1Cc1ccc(C(F)(F)F)cc1 [PP0398] ([NMeL]I[NEtG][Sar][NPrPhe(4-CF3)][Sar][hPhe(3-Cl-4-CF3)]P[Ac4c][NMeGly(cPent)][NMeD]-Morpholide; lactam N-11) the “HRAS/KRAS (ratio of KD for GDP-bound HRAS wild-type to KD for KRAS)” value ([1]; KD ratio HRAS/KRAS, SPR) was “C (A compound having a KD ratio of 0.1 or more and less than 3 is denoted as C)” and the “NRAS/KRAS (ratio of KD for GDP-bound NRAS wild-type to KD for KRAS)” value ([2]; KD ratio NRAS/KRAS, SPR) was “B (a compound having 3 or more and less than 10 is denoted as B)”.
In the case of CCO[C@@H]1C[C@H]2C(=O)NC3(CC(C)(C)C3)C(=O)N(C)[C@@H](C3CCCC3)C(=O)N(C)[C@H](C(=O)N(C)CC)CC(=O)N(C)[C@@H](C(C)C)C(=O)N[C@@H]([C@@H](C)CC)C(=O)N(C)CC(=O)N(C)[C@H]3C/C=C\CCN(C3=O)[C@@H](Cc3ccc(C(F)(F)F)cc3)C(=O)N(C)CC(=O)N[C@@H](CCc3cc(F)c(C(F)(F)F)c(F)c3)C(=O)N2C1 [PP2034], the “HRAS/KRAS (ratio of KD value with respect to HRAS to KD value with respect to KRAS)” value ([1]; SPR, GDP-bound HRAS wild-type vs GDP-bound KRAS wild-type) is reported as “A (a compound having 10 or more and less than 20 is denoted as A)” and the “NRAS/KRAS (ratio of KD value with respect to NRAS to KD value with respect to KRAS)” value ([2]; SPR, GDP-bound NRAS wild-type vs GDP-bound KRAS wild-type) is reported as “A (a compound having 10 or more and less than 20 is denoted as A)”.
With CCCN(C)C(=O)[C@@H]1CC(=O)N(C)[C@@H](COCC)C(=O)N[C@@H]([C@@H](C)CC)C(=O)N(C)CC(=O)N(C)[C@H]2C/C=C\CCN(C2=O)[C@@H](Cc2ccc(C(F)(F)F)cc2)C(=O)N(C)CC(=O)N[C@@H](CCc2ccc(C(F)(F)F)c(OC)c2)C(=O)N2C[C@@H](C)C[C@H]2C(=O)NC2(CC(C)(C)C2)C(=O)N(C)[C@@H](C2CCCC2)C(=O)N1C [PP1991] the “HRAS/KRAS (ratio of KD value for HRAS to KD value for KRAS)” value [1, 3] was “A (a compound having 10 or more and less than 20 is denoted as A)” and the “NRAS/KRAS (ratio of KD value for NRAS to KD value for KRAS)” value [2, 4] was “A (a compound having 10 or more and less than 20 is denoted as A)”.
